{"source": "patent US12534762B2", "about": "“Treating atopic dermatitis by targeting the WNT pathway” (Children's Medical Center Corporation, priority 2018, dated 2026)", "test_system": "Xenopus embryos", "assay": "MO specificity, Western blotting of protein synthesis from co-injected mRNA", "format": "in vivo, Xenopus laevis", "conditions": "stage 10", "description": "mRNA and Morpholino injection. For animal cap assays, indicated mRNAs (Tmem79, 100 and 200 pg; Xwnt8, 10 pg; β-catenin 50 pg; Xnr1, 250 pg; BMP4, 100 pg) were injected into the animal pole at 4-cell stage, and animal caps were dissected at stage 9 (in the case of Xwnt8, Xnr1, BMP4) or at stage 8.5 and treated with recombinant proteins (bFGF, 100 ng/ml; hShh, 1.5 ng/mL) until stage 10 before RT-PCR. For Neural induction assay the MO (20 ng) for Tmem79, Usp8 or β-catenin was injected into the animal pole at 4-cell stage, and animal caps were dissected at stage 9 and treated with recombinant protein Noggin (500 ng/mL) until stage 18 before RT-PCR. To examine Tmem79 and Usp8 MOs specificity, […] of mRNA of Xenopus Tmem79, mouse Tmem79, Xenopus Usp8 or xmutUsp8 (Xenopus Usp8 mutated for mismatches with the MO) were injected with a control MO, Tmem79 MO or Usp8 MO (20 ng) into the animal pole at the 2-cell stage and cultured til stage 10 for Western blotting. To knockdown the endogenous xTmem79 or xUsp8, 20 ng of control MO, Tmem79 MO or Usp8 MO were injected into two dorso-animal blastomeres at the 8-cell stage and the phenotype was scored at stage 35. To rescue the Tmem79 MO phenotype, […] of mTmem 79, 20 ng of Usp8 MO or 10 ng of β-catenin MO was injected together with Tmem79 MO (20 ng). RT-PCR primers and Morpholinos. […]", "data": [{"substance": "Usp8 MO: morpholino against Xenopus Usp8, SEQ ID NO: 26 (antisense GCTGCAAATTCTCCTCTCTTATCAA; all phosphorodiamidate morpholino (PMO); listed as Xenopus laevis)", "values": [{"measurement": "protein synthesis from the Xenopus Usp8 (xUsp8) mRNA", "value": "inhibited"}]}]}
